Laboratory results: US20050281904A1, “Kefir extract as an anti-cancer agent” (McGill University, priority 2000, published 2005)

Columns and labels:
MCF-7 cells [1] = experiment: Cell proliferation experiments, MCF-7 cells (cell numbers after 8 days); format: cell-based, human; conditions: for antiproliferative effect on MCF-7 cells (dose effect): HPLC fractions or ceramide compounds alone
Experimental: MCF7-E3 human breast cancer estrogen-sensitive cells were provided by Dr. D. Desaulniers of Health Canada, Ottawa. Cells were routinely propagated as a monolayer culture in Dulbcco's Modified Eale Medium (DMEM) supplemented with 10% heat-inactivated fetal bovine serum (FBS), in 75-cm^2 plastic dish at 37° C. in a humidified atmosphere with 5% CO2, and passage 3-4 days a time. A normal human mammary epithelial cell line was provided by Dr. M. Stampfer of UC Livermore Labs. Cells were routinely propagated as a monolayer culture in Mammary Epithelial Growth Media (MEGM, Clonetics, San Diego) supplemented with 10% heat-inactivated fetal bovine serum (FBS), in 75-cm^2 plastic dish at 37° C. in a humidified atmosphere with 5% CO2, and passage every week. For the experiments, both cells were harvest from the dish using 0.25% trypsin-EDTA solution.
Four kefir products (K1-K4) collected at various stages of kefir production at Liberty Brand Products, Inc. (Montreal, Canada) were used in this study. The large-scale production of kefir involves a two-step fermentation process. The first step is to prepare the cultures by incubating milk with kefir grains (2-10%) (K1) and fermented for 24 hrs. The grains are then removed by filtration and the resulting mother culture (K2) is added to pasteurized milk (K3), which is further fermented for 12 hrs and this final product (K4) is packaged for the consumer market. A pasteurized milk sample (M1) and two yogurt products; mixture of yogurt bacteria, pasteurized milk and milk powder (Y1) and the final yogurt product after 12 hrs of fermentation (Y2) were included for comparison. The yeast and bacteria in the samples were removed by centrifugation and filtration. About 35 ml each of the seven samples was centrifuged (32,000×g, 60 min, 4° C.) and the supernatant was filtered through a 0.45 μm Millipore filter followed by a 0.2 μm Millipore filter (Millipore Corporation, Bedford, USA). Extracts from two separate batches of kefir and yogurt were used.
Cells previously harvested were seeded in 24-well plates; 10,000 cells for MCF-7 per well in DMEM supplemented with 10% FBS and 5,000 cells for HMEC per well in MEGM supplemented with 10% FBS. The cells were allowed to attach for 24 hours. […] Cells were incubated at 37° C. in a humidified atmosphere with 5% CO2 for 8 days and the cell numbers in each well were counted using a Coulter Counter (Coulter Counter Corporation, USA). […]
The cell numbers expressed as percentage of control from different treatments and dose were compared using two-way ANOVA. When the interaction between treatments and dose was also significant the difference between treatment groups was determined by Tukey's HSD multiple comparison test. […]

MCF-7 cells [2] = conditions: 1 μM; cited from earlier work

Row | Compound | antiproliferative effect on MCF-7 cells (dose effect) (MCF-7 cells [1]) | levels of angiogenesis stimulators VEGF and cathepsin D (MCF-7 cells [2]) | dosage showing antiproliferative effect on MCF-7 cells (MCF-7 cells [1])
1 | CCCCCCCCCCCCC/C=C/[C@@H](O)[C@H](CO)NC(=O)CCCCC [C6 ceramide] | strong dose dependent antiproliferative effect | below 50 % of the control | 
2 | CC/C(=C(\c1ccccc1)c1ccc(OCCN(C)C)cc1)c1ccccc1 [Tamoxifen] |  |  | above 0.2 μM/L
3 | ceramide 1-phosphate | did not |  | 
4 | ceramide I | strong dose dependent antiproliferative effect |  | 
